Assay: xn = mol fraction of the nth substance listed
Details: Liquid, Vibrating tube method

CCCCCCC [heptane] + CCO
mass density [kg/m3]
Details	x2 = 0	x2 = 0.125	x2 = 0.25	x2 = 0.375	x2 = 0.5	x2 = 0.625	x2 = 0.75	x2 = 0.875
293.15 K, 100 kPa	683.9	688.1	694.5	701.9	711.2	722.6	737.9	758.9
293.15 K, 5000 kPa	688.2	692.5	699	706.4	715.7	727.1	742.3	763.2
293.15 K, 10000 kPa	692.5	696.8	703.3	710.9	719.9	731.4	746.6	767.4
293.15 K, 15000 kPa	696.5	701	707.3	714.9	724	735.4	750.7	771.4
293.15 K, 20000 kPa	700.5	704.9	711.3	718.9	728	739.4	754.6	775.3
293.15 K, 25000 kPa	704.1	708.5	714.9	722.4	731.6	743	758.3	778.9
293.15 K, 30000 kPa	707.5	712	718.4	725.9	735.1	746.5	761.7	782.3
293.15 K, 35000 kPa	710.8	715.4	721.7	729.3	738.5	749.9	765.1	785.6
293.15 K, 40000 kPa	714	718.4	725	732.5	741.7	753.1	768.4	788.9
293.15 K, 45000 kPa	716.9	721.5	728	735.5	744.9	756.2	771.4	791.9
293.15 K, 50000 kPa	719.8	724.5	731.1	738.5	747.9	759.3	774.5	794.9
293.15 K, 55000 kPa	722.7	727.4	733.9	741.4	750.8	762.2	777.4	797.8
293.15 K, 60000 kPa	725.4	730.2	736.7	744.2	753.6	765	780.2	800.6
293.15 K, 65000 kPa	728	732.9	739.4	746.9	756.3	767.8	782.9	803.4
303.15 K, 100 kPa	675.1	679.8	685.3	692.7	701.9	713.4	728.9	749.9
303.15 K, 5000 kPa	680	684.8	690.2	697.6	706.9	718.3	733.7	754.6
303.15 K, 10000 kPa	684.4	689.3	694.8	702.1	711.4	722.8	738.2	759
303.15 K, 15000 kPa	688.9	693.8	699.3	706.8	715.9	727.4	742.7	763.3
303.15 K, 20000 kPa	692.8	697.8	703.4	710.7	720	731.4	746.7	767.3
303.15 K, 25000 kPa	696.8	701.7	707.3	714.7	723.9	735.4	750.6	771.1
303.15 K, 30000 kPa	700.3	705.3	710.9	718.3	727.5	739	754.2	774.7
303.15 K, 35000 kPa	703.7	708.9	714.4	721.8	731.1	742.6	757.7	778.2
303.15 K, 40000 kPa	707.1	712.3	717.9	725.3	734.5	746	761.2	781.5
303.15 K, 45000 kPa	710.2	715.4	721.1	728.5	737.7	749.2	764.4	784.8
303.15 K, 50000 kPa	713.4	718.5	724.2	731.6	740.8	752.2	767.5	787.9
303.15 K, 55000 kPa	716.4	721.4	727.3	734.7	743.9	755.3	770.6	791
303.15 K, 60000 kPa	719.2	724.4	730.2	737.5	746.9	758.3	773.5	793.9
303.15 K, 65000 kPa	722	727.2	733	740.4	749.7	761.1	776.4	796.7
313.15 K, 100 kPa	666.4	670.7	676	683.3	692.6	704.2	719.8	740.8
313.15 K, 5000 kPa	671.6	676.1	681.4	688.7	697.9	709.5	724.9	745.8
313.15 K, 10000 kPa	676.5	681.1	686.4	693.6	702.9	714.3	729.8	750.5
313.15 K, 15000 kPa	681	685.6	690.9	698.2	707.5	718.9	734.3	755
313.15 K, 20000 kPa	685.3	689.9	695.3	702.6	711.9	723.3	738.5	759.1
313.15 K, 25000 kPa	689.4	694	699.4	706.7	716	727.4	742.6	763.1
313.15 K, 30000 kPa	693.3	697.9	703.4	710.5	719.9	731.3	746.5	766.9
313.15 K, 35000 kPa	696.9	701.6	707	714.3	723.6	735	750.3	770.6
313.15 K, 40000 kPa	700.4	705.2	710.6	717.9	727.2	738.6	753.8	774.1
313.15 K, 45000 kPa	703.9	708.6	714.1	721.3	730.8	742.1	757.3	777.6
313.15 K, 50000 kPa	707.1	711.9	717.4	724.7	734.1	745.4	760.6	780.9
313.15 K, 55000 kPa	710.1	715.1	720.6	727.9	737.3	748.6	763.8	784.1
313.15 K, 60000 kPa	713.1	718.1	723.6	730.9	740.2	751.6	766.9	787.1
313.15 K, 65000 kPa	716	721	726.6	733.9	743.2	754.7	769.9	790.1
323.15 K, 100 kPa	657.7	661.8	666.9	674.1	683.5	695	710.6	731.7
323.15 K, 5000 kPa	663.4	667.4	672.6	679.7	689.2	700.5	716.1	737
323.15 K, 10000 kPa	668.7	672.7	678	685.2	694.6	705.8	721.3	742.1
323.15 K, 15000 kPa	673.4	677.6	682.9	690	699.4	710.7	726.1	746.7
323.15 K, 20000 kPa	678	682.2	687.6	694.7	704	715.3	730.6	751.1
323.15 K, 25000 kPa	682.5	686.8	692.1	699.2	708.5	719.8	735.1	755.5
323.15 K, 30000 kPa	686.5	690.9	696.2	703.4	712.7	723.9	739.1	759.5
323.15 K, 35000 kPa	690.4	694.7	700	707.3	716.6	727.8	743	763.4
323.15 K, 40000 kPa	694.1	698.5	703.7	711	720.4	731.6	746.8	767
323.15 K, 45000 kPa	697.7	702	707.4	714.6	724	735.2	750.3	770.6
323.15 K, 50000 kPa	701.1	705.4	710.8	718	727.4	738.6	753.8	774
323.15 K, 55000 kPa	704.3	708.6	714	721.3	730.6	741.9	757	777.2
323.15 K, 60000 kPa	707.4	711.8	717.2	724.5	733.8	745.1	760.2	780.3
323.15 K, 65000 kPa	710.3	714.7	720.2	727.5	736.8	748.1	763.2	783.4
333.15 K, 100 kPa	649.1	652.3	657.3	664.5	673.7	685.1	700.9	722.2
333.15 K, 5000 kPa	655.2	658.4	663.4	670.7	679.9	691.2	706.8	727.9
333.15 K, 10000 kPa	661	664.2	669.4	676.6	685.7	697	712.4	733.4
333.15 K, 15000 kPa	666.3	669.6	674.7	681.9	691.1	702.3	717.7	738.5
333.15 K, 20000 kPa	670.9	674.4	679.6	686.7	696	707.1	722.5	743.2
333.15 K, 25000 kPa	675.4	678.8	684.3	691.4	700.6	711.8	727	747.5
333.15 K, 30000 kPa	679.7	683.1	688.7	695.7	704.9	716	731.3	751.7
333.15 K, 35000 kPa	683.8	687.1	692.8	699.9	709.1	720.1	735.4	755.8
333.15 K, 40000 kPa	687.6	690.9	696.6	703.8	713	724	739.2	759.6
333.15 K, 45000 kPa	691.3	694.6	700.4	707.5	716.7	727.7	743	763.3
333.15 K, 50000 kPa	694.8	698.2	704	711.2	720.3	731.4	746.6	766.8
333.15 K, 55000 kPa	698.4	701.7	707.6	714.7	723.9	735	750.2	770.4
333.15 K, 60000 kPa	701.5	705	710.8	718	727.2	738.2	753.4	773.6
333.15 K, 65000 kPa	704.7	708.1	714	721.3	730.4	741.4	756.7	776.8

Source: the NIST ThermoML archive (doi:10.1021/je050261u)
